For assay [1], the target named is T1, hTRPA1 (Homo sapiens, UniProt O75762, K186N).
T1 construct: expressed in transfected cells; host or cells: HEK293/TREx (Invitrogen), induced with tetracycline
Briefly: TRPA1 patch clamp (perforated patch, AITC-activated current). In kind it is cell-based. An excerpt: Patch clamp experiments permit the detection of currents through the TRPA1 channel in the cell line described above. To permit recording of current at a stable level and prevent the “rundown” observed by other labs, it is necessary to use the perforated patch technique, which prevents dialysis of the cytoplasm with the pipette solution. In normal whole-cell patch clamp recordings, a glass electrode is brought into contact with a single cell and a high-resistance (gigaohm) seal is established with the cell membrane. The membrane is then ruptured to achieve the whole-cell configuration, permitting control of the voltage of the cell membrane and measurement of currents flowing across the membrane using the amplifier attached to the electrode and resulting in the replacement of cytoplasm with the pipette solution. In contrast, in the perforated patch mode, an antibiotic, amphotericin, is present in the pipette solution and diffuses into contact with the cell after the seal is achieved, over the course of several minutes. The amphotericin forms ion-permeable pores in the membrane under the pipette, permitting passage of some ions but maintaining most native cytosolic components. A perfusion system permits control of the extracellular solution, including the addition of blockers and activators of the current. The current can be activated by addition of 5 μM AITC to the solution. […] In some cases, cells were grown in low density overnight on glass coverslips. Patch clamp recordings were made in the whole-cell mode with a holding potential of −40 mV. Every 5 seconds, a voltage ramp was applied from −120 to +100 mV, 400 ms in duration. Currents elicited were quantified at −80 mV and +80 mV. […] The external solution consisted of 150 mM NaCl, 4.5 mM KCl, 3 mM MgCl2, 10 mM HEPES, […], 1 mM EGTA, pH 7.4. Upon addition of AITC, TRPA1 current was induced only in TRPA1-expressing cells and not in parental HEK293 TREx cells. Removal of the AITC stimulus causes most of the current to go away. Potential blockers were tested for ability to block both inward and outward currents in the continued presence of AITC.

For assay [2], the target named is T1, hTRPA1. Nature of the assay: High throughput Ca2+ fluorescence (Fluo4) assay, AITC stimulation. In kind it is cell-based. A digest of the protocol: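 Tetracycline-induced HEK293/TREx cells loaded with 1 μM Fluo4/AM for 60 min at room temperature. Compound added for 2 min after a 4-frame baseline, then AITC; fluorescence followed ~3 min.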
Setting [3] is: Table 2, inward current, read-out: hTRPA1 Patch Inwd IC50.
Setting [4] is: Table 2, read-out: hTRPA1 Fluor IC50.
Where [5] appears, read: Table 1, read-out: hTRPA1 Patch IC50.
Setting [6] is: Table 1, read-out: hTRPA1 Fluo4 IC50.

Some results are limits rather than exact numbers.

One may read the IC50 as the concentration that gives 50% inhibition.

T1 sequence (O75762 whole entry K186N): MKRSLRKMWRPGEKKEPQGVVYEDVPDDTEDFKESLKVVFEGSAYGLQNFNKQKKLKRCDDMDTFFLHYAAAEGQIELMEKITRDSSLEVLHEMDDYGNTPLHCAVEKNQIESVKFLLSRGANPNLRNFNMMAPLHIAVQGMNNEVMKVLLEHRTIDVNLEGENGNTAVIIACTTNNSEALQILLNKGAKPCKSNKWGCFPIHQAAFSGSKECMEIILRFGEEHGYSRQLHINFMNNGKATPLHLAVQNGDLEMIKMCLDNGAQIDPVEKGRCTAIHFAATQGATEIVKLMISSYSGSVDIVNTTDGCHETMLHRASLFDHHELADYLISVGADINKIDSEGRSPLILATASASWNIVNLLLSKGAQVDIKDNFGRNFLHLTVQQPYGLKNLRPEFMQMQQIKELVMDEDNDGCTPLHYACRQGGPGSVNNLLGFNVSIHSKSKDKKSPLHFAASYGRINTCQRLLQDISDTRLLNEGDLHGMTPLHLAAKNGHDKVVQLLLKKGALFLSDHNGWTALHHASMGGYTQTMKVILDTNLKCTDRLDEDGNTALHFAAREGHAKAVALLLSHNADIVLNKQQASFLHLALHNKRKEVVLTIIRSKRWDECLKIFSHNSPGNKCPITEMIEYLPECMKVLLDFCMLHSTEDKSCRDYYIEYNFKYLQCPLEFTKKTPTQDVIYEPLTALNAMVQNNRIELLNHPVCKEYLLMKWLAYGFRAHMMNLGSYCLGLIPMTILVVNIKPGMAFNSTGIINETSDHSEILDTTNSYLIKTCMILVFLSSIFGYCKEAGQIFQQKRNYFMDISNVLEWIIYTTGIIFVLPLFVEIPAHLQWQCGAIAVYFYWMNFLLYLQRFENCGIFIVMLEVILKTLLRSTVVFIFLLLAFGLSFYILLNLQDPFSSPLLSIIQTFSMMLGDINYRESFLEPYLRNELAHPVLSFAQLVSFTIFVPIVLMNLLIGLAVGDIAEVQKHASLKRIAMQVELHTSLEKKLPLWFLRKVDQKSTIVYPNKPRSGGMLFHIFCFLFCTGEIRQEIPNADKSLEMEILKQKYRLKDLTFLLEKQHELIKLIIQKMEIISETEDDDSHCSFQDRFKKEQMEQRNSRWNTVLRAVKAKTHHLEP

As to `Cn1c(=O)c2c(ncn2CC(=O)Nc2ccc(C(C)(C)O)cc2)n(C)c1=O` [Compound 402, 2-(1,3-dimethyl-2,6-dioxo-1,2,3,6-tetrahydropurin-7-yl)-N-(4-(2-hydroxypropan-2-yl)phenyl)acetamide], the IC50 in assay [1] (setting [3]) was not above 5000 nM. `CC(C)c1ccc(NC(=O)C(C)(C)n2cnc3c2c(=O)n(C)c(=O)n3C)cc1` [Compound 387, 2-(1,3-dimethyl-2,6-dioxo-1,2,3,6-tetrahydropurin-7-yl)-N-(4-isopropylphenyl)-2-methylpropanamide]: in assay [1] (setting [3]), the concentration for half-maximal inhibition (IC50) is more than 10000 nM. Same read-out and setting: for `Cc1cccc(CCNC(=O)Cn2cnc3c2c(=O)n(C)c(=O)n3C)c1` [Compound 407, 2-(1,3-Dimethyl-2,6-dioxo-1,2,3,6-tetrahydropurin-7-yl)-N-[2-(3-methyl-phenyl)-ethyl]-acetamide] the value was not above 10000 nM. Take `Cn1c(=O)c2c(ncn2CC(=O)Nc2nccs2)n(C)c1=O` [Compound 225]: the IC50 in assay [1] (setting [3]) is more than 10000 nM; in assay [2] (setting [4]) it was more than 10 µM. With `Cn1c(=O)[nH]c(=O)c2c1ncn2CC(=O)Nc1ccc(C2CCCC2)cc1` [Compound 394, N-(4-cyclopentylphenyl)-2-(3-methyl-2,6-dioxo-1,2,3,6-tetrahydropurin-7-yl)acetamide], the concentration for half-maximal inhibition (IC50) in assay [1] (setting [3]) is not above 5000 nM. As for `Cn1c(=O)c2c(ncn2CC(=O)Nc2ccc([N+](=O)[O-])cc2)n(C)c1=O` [Compound 210], the results for the IC50 in assay [1] (setting [3]) and in assay [2] (setting [4]) were not above 10000 nM and not below 20 µM, respectively.

In the case of `Cn1c(=O)c2c(ncn2CC(=O)Nc2ccc(Nc3ccccc3)cc2)n(C)c1=O` [Compound 250], the IC50 in assay [1] (setting [3]) is not above 1000 nM; in assay [2] (setting [4]), not above 5 µM.

On to `Cn1c(=O)c2c(ncn2CC(=O)Nc2ccc(Br)cc2Cl)n(C)c1=O` [Compound 333], for which the IC50 in assay [1] (setting [3]) is not above 1000 nM; in assay [2] (setting [4]), not above 5 µM. The matching figures for `Cn1c(=O)c2c(ncn2CC(=O)Nc2ccc(OCc3ccccc3)cc2)n(C)c1=O` [Compound 224]: not above 5000 nM and not above 1 µM.

For `CCOC(=O)C1=C(c2ccccc2)NC(=S)NC1c1ccc(Cl)c(Cl)c1` (stereo not drawn), the results for the IC50 in assay [1] (setting [5]) and in assay [2] (setting [6]) were more than 10000 nM and more than 10 µM, respectively. `CCOC(=O)C1=C(c2ccccc2)NC(=S)NC1c1cc(O)ccc1Br` (stereo not drawn) [drawing 264]: in assay [1] (setting [5]), the IC50 is not above 1000 nM. Regarding `COc1cccc(CCNC(=O)Cn2cnc3c2c(=O)n(C)c(=O)n3C)c1` [Compound 408, 2-(1,3-Dimethyl-2,6-dioxo-1,2,3,6-tetrahydropurin-7-yl)-N-[2-(3-methoxy-phenyl)-ethyl]acetamide], in assay [1] (setting [3]), the half-inhibitory concentration (IC50) is not above 5000 nM. In the case of `CC(C(=O)Nc1ccc(Cl)cc1)n1cnc2c1c(=O)n(C)c(=O)n2C` (stereo not drawn) [Compound 300], the IC50 is not above 1000 nM in assay [1] (setting [3]) and not above 5 µM in assay [2] (setting [4]). `CCOC(=O)C1=C(c2ccccc2)NC(=S)NC1c1cccc(OC)c1` (stereo not drawn): the half-inhibitory concentration (IC50) was not above 5000 nM in assay [1] (setting [5]) and not above 5 µM in assay [2] (setting [6]). Turning to `COC(=O)C1=C(C)NC(=S)NC1c1cc(C)ccc1C` (stereo not drawn), the half-maximal inhibitory concentration (IC50) in assay [1] (setting [5]) is not above 5000 nM; in assay [2] (setting [6]), not above 5 µM. On to `COc1ccc2nc(NC(=O)Cn3cnc4c3c(=O)n(C)c(=O)n4C)sc2c1` [Compound 234], for which the values for the IC50 in assay [1] (setting [3]) and in assay [2] (setting [4]) were not above 10000 nM and not above 5 µM, respectively. Consider `Cn1c(=O)c2c(ncn2CC(=O)NCCc2ccc(S(N)(=O)=O)cc2)n(C)c1=O` [Compound 389], for which the half-inhibitory concentration (IC50) in assay [1] (setting [3]) is more than 10000 nM. As for `CCc1ccc(NC(=O)C(C)n2cnc3c2c(=O)n(C)c(=O)n3C)cc1` (stereo not drawn) [Compound 299], the results for the 50% inhibitory concentration (IC50) in assay [1] (setting [3]) and in assay [2] (setting [4]) were not above 10000 nM and not above 5 µM, respectively. Turning to `CCOC(=O)C1=C(c2ccccc2)NC(=S)NC1c1cc(O)ccc1Br` (stereo not drawn) [drawing 265], the concentration for half-maximal inhibition (IC50) in assay [1] (setting [5]) was not above 500 nM. On to `CN(C)c1ccc(CCNC(=O)Cn2cnc3c2c(=O)n(C)c(=O)n3C)cc1` [Compound 397, N-[2-(4-Dimethylaminophenyl)-ethyl]-2-(1,3-dimethyl-2,6-dioxo-1,2,3,6-tetrahydropurin-7-yl)-acetamide], for which the IC50 in assay [1] (setting [3]) was not above 5000 nM. For `CC(C)c1ccc(NC(=O)Cn2cnc3[nH]c(=O)n(C)c(=O)c32)cc1` [Compound 391, N-(4-isopropylphenyl)-2-(1-methyl-2,6-dioxo-1,2,3,6-tetrahydropurin-7-yl)acetamide], the half-inhibitory concentration (IC50) in assay [1] (setting [3]) was not above 10000 nM. The compound `COc1ccc(CCNC(=O)Cn2cnc3c2c(=O)n(C)c(=O)n3C)cc1OC` [Compound 390] had an IC50 in assay [1] (hTRPA1 Patch Inwd IC50 (nM), Table 2, inward current) not above 10000 nM. With `Cn1c(=O)c2c(ncn2CC(=O)Nc2ccc3c(c2)CCC3)n(C)c1=O` [Compound 240], the IC50 in assay [1] (setting [3]) is not above 5000 nM. Take `Cn1c(=O)c2c(ncn2CC(=O)Nc2ccccc2C2CCCC2)n(C)c1=O` [Compound 398, N-(2-cyclopentylphenyl)-2-(1,3-dimethyl-2,6-dioxo-1,2,3,6-tetrahydropurin-7-yl)acetamide]: the half-maximal inhibitory concentration (IC50) in assay [1] (setting [3]) was not above 10000 nM. On to `CC(C)c1ccc(N(C)C(=O)Cn2cnc3[nH]c(=O)n(C)c(=O)c32)cc1` [Compound 392, N-(4-isopropylphenyl)-N-methyl-2-(1-methyl-2,6-dioxo-1,2,3,6-tetrahydropurin-7-yl)acetamide], for which the half-maximal inhibitory concentration (IC50) in assay [1] (setting [3]) is more than 10000 nM. Consider `Cc1ccccc1CCNC(=O)Cn1cnc2c1c(=O)n(C)c(=O)n2C` [Compound 406, N-(2-methylphenethyl)-2-(1,3-dimethyl-2,6-dioxo-1,2,3,6-tetrahydropurin-7-yl)acetamide], for which, in assay [1] (setting [3]), the 50% inhibitory concentration (IC50) was not above 10000 nM. The same measure, in the same setting: for `CC(C)c1ccc(NC(=O)Cn2cnc3c2c(=O)[nH]c(=O)n3C)cc1` [Compound 388, N-(4-isopropylphenyl)-2-(3-methyl-2,6-dioxo-1,2,3,6-tetrahydropurin-7-yl)acetamide] the value was more than 10000 nM.

As to `COc1ccc(Cl)cc1NC(=O)Cn1cnc2c1c(=O)n(C)c(=O)n2C` [Compound 285], the IC50 in assay [1] (setting [3]) is not above 5000 nM. As to `Cc1ccc(CCNC(=O)Cn2cnc3c2c(=O)n(C)c(=O)n3C)cc1` [Compound 400, 2-(1,3-Dimethyl-2,6-dioxo-1,2,3,6-tetrahydro-purin-7-yl)-N-(2-p-tolyl-ethyl)-acetamide], in assay [1] (setting [3]), the IC50 was not above 1000 nM. Same read-out and setting: for `COc1ccc(CCCNC(=O)Cn2cnc3c2c(=O)n(C)c(=O)n3C)cc1` [Compound 401, 2-(1,3-Dimethyl-2,6-dioxo-1,2,3,6-tetrahydropurin-7-yl)-N-[3-(4-methoxy-phenyl)-propyl]-acetamide] the value was not above 5000 nM; for `COc1ccccc1CCNC(=O)Cn1cnc2c1c(=O)n(C)c(=O)n2C` [Compound 403, N-(2-methoxyphenethyl)-2-(1,3-dimethyl-2,6-dioxo-1,2,3,6-tetrahydropurin-7-yl)acetamide], more than 10000 nM. As to `Cn1c(=O)c2c(ncn2CC(=O)NCCc2ccccc2F)n(C)c1=O` [Compound 404, N-(2-fluorophenethyl)-2-(1,3-dimethyl-2,6-dioxo-1,2,3,6-tetrahydropurin-7-yl)acetamide], in assay [1] (setting [3]), the half-maximal inhibitory concentration (IC50) was not above 1000 nM. With `Cn1c(=O)c2c(ncn2CC(=O)NCCc2ccccc2Cl)n(C)c1=O` [Compound 405, N-(2-chlorophenethyl)-2-(1,3-dimethyl-2,6-dioxo-1,2,3,6-tetrahydropurin-7-yl)acetamide], the IC50 in assay [1] (setting [3]) is not above 10000 nM. For `Cn1c(=O)c2c(ncn2CC(=O)NCc2ccccc2Cl)n(C)c1=O` [Compound 236], in assay [1] (setting [3]), the concentration for half-maximal inhibition (IC50) was more than 10000 nM. For `CC(C)c1ccc(NC(=O)Cn2cnc3[nH]c(=O)[nH]c(=O)c32)cc1` [Compound 399, 2-(2,6-dioxo-1,2,3,6-tetrahydropurin-7-yl)-N-(4-isopropylphenyl)acetamide], the IC50 in assay [1] (setting [3]) was not above 10000 nM.

As to `CC(C)c1ccc(N(C)C(=O)Cn2cnc3c2c(=O)n(C)c(=O)n3C)cc1` [Compound 393, 2-(1,3-dimethyl-2,6-dioxo-1,2,3,6-tetrahydropurin-7-yl)-N-(4-isopropylphenyl)-N-methylacetamide], the IC50 in assay [1] (setting [3]) was more than 10000 nM. The same measure, in the same setting: as for `Cn1c(=O)c2c(ncn2CC(=O)NCCc2ccc(Cl)c(Cl)c2)n(C)c1=O` [Compound 396, N-[2-(3,4-Dichlorophenyl)-ethyl]-2-(1,3-dimethyl-2,6-dioxo-1,2,3,6-tetrahydro-purin-7-yl)-acetamide], the figure is not above 1000 nM; as for `Cn1c(=O)c2c(ncn2CC(=O)Nc2ccc(C3CCCC3)cc2)n(C)c1=O` [Compound 395, N-(4-cyclopentylphenyl)-2-(1,3-dimethyl-2,6-dioxo-1,2,3,6-tetrahydropurin-7-yl)acetamide], not above 500 nM. Regarding `Cn1c(=O)c2c(ncn2CC(=O)NCCc2ccc(C#N)cc2)n(C)c1=O` [Compound 409, N-[2-(4-Cyanophenyl)-ethyl]-2-(1,3-dimethyl-2,6-dioxo-1,2,3,6-tetrahydro-purin-7-yl)-acetamide], the 50% inhibitory concentration (IC50) in assay [1] (setting [3]) was not above 10000 nM. Consider `COC(=O)C1=C(c2ccccc2)NC(=S)NC1c1ccc(OC)c(OC)c1` (stereo not drawn), for which, in assay [1] (setting [5]), the half-inhibitory concentration (IC50) is not above 10000 nM.

Values taken from patent publication US7671061B2, “Methods and compositions for treating pain” (Hydra Biosciences, Inc., priority 2005, dated 2010).
